Article PMC10818749, “Toxicity Studies of Cardiac-Targeting Peptide Reveal a Robust Safety Profile” (Pharmaceutics, 2024)
“Also recorded” adds a separate entry of the source. Ends that are not written are not given here.

Key:
HEK-Kir2.1 = biological target: T1, HEK-Kir2.1 (Homo sapiens, UniProt P63252); format: cell-based; details: CTP 0.1 to 30 µM; HEK cells; step to -120mV; 0.1% Pluronic F-68
T1 construct: host or cells: HEK

OPRM1 = OPRM1 (Homo sapiens, UniProt P35372); experiment: OPRM1 GPCR cAMP modulation assay; format: cell-based
Experimental: GPCR cAMP Modulation Assays: cAMP Hunter cell lines were grown, plated, and subjected to Eurofins’ DiscoverX HitHunter cAMP XS+ assay. Gs agonist activity, Gi agonist activity, and antagonist activity-induced assays were read using chemiluminescent signal detection. The percentage of activity was calculated for Gs and Gi agonist assays, and the percentage of inhibition was calculated for Gs antagonist assays. […]
cAMP Second ary Messenger Assay pound results in the release of calcium from intracellular stores and DiscoverX has developed a panel of cell lines stably expressing non- an increase in dye fluorescence that is measured in real-time. tagged GPCRs that endogenously signal through cAMP. […]
The enzyme is split into two complementary portions: Enzyme Ac-ceptor (EA) and Enzyme Donor (ED). […] Active enzyme can then convert a chemilumines-cent substrate, generating an output signal detectable on a standard The NHR is tagged with the ProLink™ (PK) component of our EFC microplate reader. assay system, and the SRCP domain is fused to the Enzyme Ac-ceptor component (EA) expressed in the nucleus. […]

CD1-wildtype mice = experiment: Mouse toxicity studies (weight, blood count, serum chemistries); format: in vivo; details: for alkaline phosphatase level, individual mouse: female
Experimental: Mouse Toxicity Studies: Sixty CD1-wildtype mice (1:1 male to female ratio) were obtained from Charles River and divided into 6 groups of 10, 5 females and 5 males each. Ten control mice were injected with 1X PBS. Treated mice were injected intravenously with a single dose of CTP 150 μg/Kg. Groups of 10 treated mice (5 male, 5 female) were euthanized on day 0 (immediately after injection), 1, 2, 7, and 14 post-injection using inhalational CO2. After euthanasia, the chest cavity was opened, and blood drawn via cardiac puncture for complete blood count and serum chemistries. Following the blood draw, the right atrium was nicked and the whole animal perfusion fixed using 3 mL of formalin injected into the left ventricular apex. The control group was euthanized on day 2. A complete blood count, metabolic profile, and thyroid studies were performed.

[1] = female mice, CTP 150 μg/Kg single i.v., Day 0, recovered by Day 1
[2] = female mice, CTP 150 μg/Kg single i.v., vs control
[3] = male mice, CTP 150 μg/Kg single i.v., vs control

T1 sequence (P63252 whole entry): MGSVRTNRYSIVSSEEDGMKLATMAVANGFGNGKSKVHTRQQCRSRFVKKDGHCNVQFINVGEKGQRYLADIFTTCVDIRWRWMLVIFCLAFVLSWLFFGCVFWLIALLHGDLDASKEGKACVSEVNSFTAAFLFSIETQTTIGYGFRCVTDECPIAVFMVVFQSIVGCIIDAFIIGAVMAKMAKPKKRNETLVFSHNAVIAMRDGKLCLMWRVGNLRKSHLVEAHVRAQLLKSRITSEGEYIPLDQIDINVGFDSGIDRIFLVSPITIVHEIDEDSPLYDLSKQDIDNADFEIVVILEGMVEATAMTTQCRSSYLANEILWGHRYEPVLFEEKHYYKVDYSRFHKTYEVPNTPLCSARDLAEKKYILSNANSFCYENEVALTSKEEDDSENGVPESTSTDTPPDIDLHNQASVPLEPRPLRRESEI
Sequence of OPRM1 (P35372 whole entry): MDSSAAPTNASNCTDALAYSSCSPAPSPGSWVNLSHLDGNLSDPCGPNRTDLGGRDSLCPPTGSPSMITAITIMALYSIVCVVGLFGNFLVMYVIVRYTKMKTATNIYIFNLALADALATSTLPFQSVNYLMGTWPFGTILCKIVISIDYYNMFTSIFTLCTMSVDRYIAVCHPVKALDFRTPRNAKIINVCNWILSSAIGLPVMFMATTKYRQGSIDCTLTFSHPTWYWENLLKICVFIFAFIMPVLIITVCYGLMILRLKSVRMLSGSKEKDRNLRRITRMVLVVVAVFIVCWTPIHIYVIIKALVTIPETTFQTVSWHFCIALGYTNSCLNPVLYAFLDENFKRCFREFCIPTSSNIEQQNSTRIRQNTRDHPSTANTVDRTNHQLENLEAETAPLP

With APWHLSSQYSRT [CTP] the “Estimated IC50” value (HEK-Kir2.1) was “N/C (Not calculable, inhibition >25% was not observed.)”, the antagonist action (OPRM1) was “no antagonist action” and the toxicity signals overall (CD1-wildtype mice; CTP 150 µg/Kg single dose, except borderline alkaline phosphatase increase in female mice) was “no significant toxicity signals”. For the same sequence, the body weight (CD1-wildtype mice; control vs injected mice of each sex, CTP 150 μg/Kg single i.v., two-week course) was “no significant difference”, the “mean alkaline phosphatase level” value (CD1-wildtype mice; female mice, any of the groups, upper limit of normal not crossed, CTP 150 μg/Kg single i.v.) was ≤ 140 IU/L and the alkaline phosphatase recovery (CD1-wildtype mice; female mice, CTP 150 μg/Kg single i.v.) was “returning to baseline by Day 2”. The platelet count (CD1-wildtype mice; [1]) was “decreased on Day 0; also recorded: significant decrease”, the “white blood cell count” value (CD1-wildtype mice; [1]) was “decreased on Day 0; also recorded: significant decrease” and the bilirubin (CD1-wildtype mice; female mice, CTP 150 μg/Kg single i.v., only on Day 0, recovered by Day 1) was “significant decrease”. The alanine aminotransferase (CD1-wildtype mice; [2]) was “no significant difference”, the alkaline phosphatase change (CD1-wildtype mice; [2]) was “borderline increase in alkaline phosphatase levels in female mice on Days 0 and 1, with recovery to control levels by Day 2; also recorded: rise in alkaline phosphatase” and the aspartate aminotransferase (CD1-wildtype mice; [2]) was “no significant difference”. The blood urea nitrogen (CD1-wildtype mice; [2]) was “no significant difference”, the creatinine (CD1-wildtype mice; [2]) was “no significant difference” and the hemoglobin (CD1-wildtype mice; [2]) was “no significant difference”. The “alkaline phosphatase level, individual mouse” value (CD1-wildtype mice; day 0, first of two borderline elevated mice, CTP 150 μg/Kg single i.v.) was 151 IU/L, the “alkaline phosphatase level, individual mouse” value (CD1-wildtype mice; day 0, second of two borderline elevated mice, CTP 150 μg/Kg single i.v.) was 166 IU/L and the calcium levels (CD1-wildtype mice; male mice, CTP 150 μg/Kg single i.v., normalizing at later time-points) was “increased marginally only on Day 0”. The alanine aminotransferase (CD1-wildtype mice; [3]) was “no difference”, the alkaline phosphatase (CD1-wildtype mice; [3]) was “no difference” and the aspartate aminotransferase (CD1-wildtype mice; [3]) was “no difference”. For the same sequence, the blood urea nitrogen (CD1-wildtype mice; [3]) was “decrease; also recorded: significantly lower on Days 0–2”, the creatinine (CD1-wildtype mice; [3]) was “decrease; also recorded: significantly lower on Days 0–2” and the hemoglobin (CD1-wildtype mice; [3]) was “no difference”. For the same sequence, the phosphorous levels (CD1-wildtype mice; [3]) was “no difference”, the platelet count (CD1-wildtype mice; [3]) was “no difference” and the total bilirubin (CD1-wildtype mice; [3]) was “no difference”. For the same sequence, the “white blood cell count” value (CD1-wildtype mice; [3]) was “no difference”.
